The source of these data is patent US20240065270A1 (priority 2018, published 2024).

“Also recorded” adds a separate entry of the source.

For assay [1], the system named is Arabidopsis wildtype plants. Put plainly: Growth (root length) of Arabidopsis wildtype plants on media with low-dose herbicides, alone and combined. The class given is in vivo. How it is done: Because Cellulosin has different target as isoxaben, indaziflam and C17. Since the need to avoid the development of herbicide-resistant weeds that is caused by repetitive application of the same herbicide is utmost, we decided to test whether application of Cellulosin together with isoxaben, indaziflam and C17 would make it possible to control the weeds more efficiently with reduced dosage of two herbicides.
Statistically significant differences in right panels were determined by one-way ANOVA test followed by Tukey's multiple comparisons test. Different letters of root length of seedlings indicate significant difference between groups (p<0.05). N=12.
[…] Bar, 1 cm.
Because Cellulosin and isoxaben target CesA at different sites, it allowed us to hypothesize that application of both herbicides at the same time will make it possible to control the weeds with reduced dosage of both herbicides. This should also avoid the development of herbicide-resistant weeds that is caused by repetitive application of the same herbicide. We tested the growth of Arabidopsis at lower dosage of both Cellulosin and isoxaben.

Assay [2] relates to Cellulosin resistant mutants (cesa6). Put plainly: Growth (root length) of Cellulosin resistant cesa6 mutants on supplemented media. Format: in vivo, Arabidopsis. Particulars: media supplemented with the compound, compared with DMSO control. From the text: (§1) Recently, we discovered a new cellulose synthase inhibitor Cellulosin and a group of cesa6 mutants that carry mis-sense mutations at the central cytoplasmic region that contains the catalytic motif and are resistant to Cellulosin. In order to test whether Cellulosin has the same mode of action as isoxaben, indaziflam and C17, we first tested the growth of isoxaben resistant mutants on media supplemented with Cellulosin. […] We next tested the growth of our Cellulosin resistant mutants on isoxaben, indaziflam and C17.
FIGS. 2E-2G depict quantifications of root length of Cellulosin resistant mutants on media supplemented with isoxaben (FIG. 2E), indaziflam (FIG. 2F), and C17 (FIG. 2G) in comparison with DMSO control, Statistically significant differences in right panels were determined by one-way ANOVA test followed by Tukey's multiple comparisons test. Different letters of root length of seedlings indicate significant difference between groups (p<0.05). Bars: 1 cm.

For assay [3], the system named is plants expressing CesA6 carrying mis-sense mutations at the catalytic site. Put plainly: Growth of transgenic plants expressing CesA6 with mis-sense mutations at the hypothesized Cellulosin binding sites. Format: in vivo, Arabidopsis. Particulars: cesa6 loss-of-function mutant background; compared with DMSO control.
Description: as §1

Assay [4] deals with Arabidopsis mutants ixr1-1, ixr1-2 and ixr2-1. As to the kind of experiment: Growth (root length) of isoxaben resistant mutants ixr1-1, ixr1-2, ixr2-1 on supplemented media. Format: in vivo. The conditions noted are these: media supplemented with the compound.
Description: as §1
Wildtype (WT) Arabidopsis and its mutants ixr1-1, ixr1-2, and ixr2-1 are grown on media supplemented with DMSO (FIGS. 1A-1B), isoxaben (FIGS. 1C-1D) or Cellulosin (FIGS. 1E-1F) and their quantifications on their root length. Arabidopsis mutants ixr1-1, ixr1-2 and ixr2-1 have longer roots in compare with wildtype (Col) on media supplemented with isoxaben. […] Bars: 1 cm

For the molecule `Cc1ccc2c(c1)[C@H](Nc1nc(N)nc(C(C)F)n1)[C@@H](C)C2` (stereo partly drawn) [indaziflam], the plant growth inhibition entry in assay [1] (0.06 nM indaziflam alone in growth media) is reported as “did not inhibit plant growth; also recorded: does not significantly inhibit plant growth”; in assay [1] (0.25 nM indaziflam alone in growth media) it was “not inhibited”. In addition, the “sensitivity of Cellulosin resistant mutants in growth (root length)” value in assay [2] is recorded as “Most of our mutants that are resistant to Cellulosin are sensitive; also recorded: only a few of our mutants show reduced sensitivity”. The “resistance / sensitivity in growth of plants expressing mutated CesA6” value in assay [3] is listed as “do not show resistance; also recorded: they have the same sensitivity”.
As to `CCC(C)(CC)c1cc(NC(=O)c2c(OC)cccc2OC)on1` [isoxaben, N-3[1-ethyl-1-methylpropyl]-5-isoxazolyl-2,6, or dimethoxybenzamide], the plant growth inhibition result is on record as “Neither 300 nM Cellulosin nor 3.5 nM isoxaben significantly inhibits plant growth; also recorded: does not significantly inhibit plant growth” in assay [1] (3.5 nM isoxaben alone, nine days old plants) and “not inhibited; also recorded: did not inhibit plant growth; also recorded: does not significantly inhibit plant growth” in assay [1] (4 nM isoxaben alone in growth media). In addition, in assay [4], the “growth / root length of isoxaben resistant mutants compared with wildtype (Col)” value was “longer roots”. In addition, the “sensitivity of Cellulosin resistant mutants in growth (root length)” value in assay [2] is “Most of our mutants that are resistant to Cellulosin are sensitive; also recorded: only a few of our mutants show reduced sensitivity”. In addition, the “resistance / sensitivity in growth of plants expressing mutated CesA6” value in assay [3] is on record as “do not show resistance; also recorded: they have the same sensitivity”.
